Assay results from doi:10.1101/2025.01.14.632949v1 (biorxiv, 2025).

molecular target: Gal-3 (Homo sapiens, UniProt P17931); assay: biolayer interferometry, steady-state analysis; assay type: binding
Sequence (P17931 2-250): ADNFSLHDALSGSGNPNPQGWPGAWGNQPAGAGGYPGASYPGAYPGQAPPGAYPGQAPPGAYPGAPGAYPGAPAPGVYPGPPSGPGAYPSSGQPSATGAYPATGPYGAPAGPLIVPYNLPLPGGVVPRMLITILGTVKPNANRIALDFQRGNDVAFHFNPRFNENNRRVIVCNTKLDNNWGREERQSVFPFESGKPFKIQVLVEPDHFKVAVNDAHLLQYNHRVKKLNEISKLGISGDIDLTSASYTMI

Kd	Compound
3.31 µM	OC[C@H]1O[C@H](Oc2ccc(N=Nc3c(O)c(N=Nc4ccc(O[C@H]5O[C@H](CO)[C@H](O)[C@H](O)[C@H]5O)cc4)c(O)c(N=Nc4ccc(O[C@H]5O[C@H](CO)[C@H](O)[C@H](O)[C@H]5O)cc4)c3O)cc2)[C@H](O)[C@@H](O)[C@H]1O [αGalY]
9.14 ± 3.42 µM	OC[C@H]1O[C@@H](Oc2ccc(N=Nc3c(O)c(N=Nc4ccc(O[C@@H]5O[C@H](CO)[C@H](O)[C@H](O)[C@H]5O)cc4)c(O)c(N=Nc4ccc(O[C@@H]5O[C@H](CO)[C@H](O)[C@H](O)[C@H]5O)cc4)c3O)cc2)[C@H](O)[C@@H](O)[C@H]1O [βGalY]
3.46 ± 1.75 µM	OC[C@H]1O[C@@H](O[C@H]2[C@H](O)[C@@H](O)[C@H](Oc3ccc(N=Nc4c(O)c(N=Nc5ccc(O[C@@H]6O[C@H](CO)[C@@H](O[C@@H]7O[C@H](CO)[C@H](O)[C@H](O)[C@H]7O)[C@H](O)[C@H]6O)cc5)c(O)c(N=Nc5ccc(O[C@@H]6O[C@H](CO)[C@@H](O[C@@H]7O[C@H](CO)[C@H](O)[C@H](O)[C@H]7O)[C@H](O)[C@H]6O)cc5)c4O)cc3)O[C@@H]2CO)[C@H](O)[C@@H](O)[C@H]1O [βLacY]
